Measured values from patent US7045343B2, “Sterilization indicator test packs” (3M Innovative Properties Company, priority 1998, dated 2006).

Tested on: enzyme associated with Bacillus stearothermophilus spores
Assay: Rapid enzyme fluorescence readout of indicators after hydrogen peroxide plasma sterilization
Assay type: biochemical
Conditions: for FLUORESCENCE - PERCENT POSITIVE 1 HR / FLUORESCENCE - PERCENT POSITIVE 2 HR / FLUORESCENCE - PERCENT POSITIVE 3 HR / FLUORESCENCE - PERCENT POSITIVE 4 HR / FLUORESCENCE - PERCENT POSITIVE 5 HR: 1–22 min diffusion
In short: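 Indicators with a TYVEK closure held spores coated with various chemicals and were exposed to hydrogen peroxide plasma at 45–55 °C: 6–7 mg/ml chamber peroxide, diffusing 1–22 min at 6–10 Torr. Enzyme fluorescence was read hourly for 5 h at 60 °C. Growth was scored visually as a purple-to-yellow change after 168 h.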

Substance: Decaglyceryl Monostearate
- FLUORESCENCE - PERCENT POSITIVE 1 HR (Example 7, 50 mg/ml coating): 64.4%
- FLUORESCENCE - PERCENT POSITIVE 2 HR (Example 7, 50 mg/ml coating): 83.0%
- FLUORESCENCE - PERCENT POSITIVE 3 HR (Example 7, 50 mg/ml coating): 89.8%
- FLUORESCENCE - PERCENT POSITIVE 4 HR (Example 7, 50 mg/ml coating): 91.3%
- FLUORESCENCE - PERCENT POSITIVE 5 HR (Example 7, 50 mg/ml coating): 91.3%

Substance: Decaglyceryl Decaoleate
- accuracy of sterilization indicators compared to indicators made with untreated spores (1–3 hours after exposure): improved
- accuracy of sterilization indicators compared to indicators made with untreated spores (2–3 hours after exposure): improved
- accuracy of sterilization indicators compared to indicators made with untreated spores (2–3 hours after exposure, concentrations of 5–100 mg/ml): improved
- FLUORESCENCE - PERCENT POSITIVE 1 HR (Example 6, 10 mg/ml coating): 83.7%
- FLUORESCENCE - PERCENT POSITIVE 2 HR (Example 6, 10 mg/ml coating): 100%
- FLUORESCENCE - PERCENT POSITIVE 3 HR (Example 6, 10 mg/ml coating): 100%
- FLUORESCENCE - PERCENT POSITIVE 4 HR (Example 6, 10 mg/ml coating): 100%
- FLUORESCENCE - PERCENT POSITIVE 5 HR (Example 6, 10 mg/ml coating): 100%
- FLUORESCENCE - PERCENT POSITIVE 1 HR (Example 7, 10 mg/ml coating): 83.7%
- FLUORESCENCE - PERCENT POSITIVE 2 HR (Example 7, 10 mg/ml coating): 100%
- FLUORESCENCE - PERCENT POSITIVE 3 HR (Example 7, 10 mg/ml coating): 100%
- FLUORESCENCE - PERCENT POSITIVE 4 HR (Example 7, 10 mg/ml coating): 100%
- FLUORESCENCE - PERCENT POSITIVE 5 HR (Example 7, 10 mg/ml coating): 100%
- FLUORESCENCE - PERCENT POSITIVE 1 HR (Example 9, 5 mg/ml coating): 65.7%
- FLUORESCENCE - PERCENT POSITIVE 2 HR (Example 9, 5 mg/ml coating): 100%
- FLUORESCENCE - PERCENT POSITIVE 3 HR (Example 9, 5 mg/ml coating): 100%
- FLUORESCENCE - PERCENT POSITIVE 4 HR (Example 9, 5 mg/ml coating): 100%
- FLUORESCENCE - PERCENT POSITIVE 5 HR (Example 9, 5 mg/ml coating): 100%
- FLUORESCENCE - PERCENT POSITIVE 1 HR (Example 9, 7.5 mg/ml coating): 83.5%
- FLUORESCENCE - PERCENT POSITIVE 2 HR (Example 9, 7.5 mg/ml coating): 100%
- FLUORESCENCE - PERCENT POSITIVE 3 HR (Example 9, 7.5 mg/ml coating): 100%
- FLUORESCENCE - PERCENT POSITIVE 4 HR (Example 9, 7.5 mg/ml coating): 100%
- FLUORESCENCE - PERCENT POSITIVE 5 HR (Example 9, 7.5 mg/ml coating): 100%
- FLUORESCENCE - PERCENT POSITIVE 1 HR (Example 9, 10 mg/ml coating): 83.7%
- FLUORESCENCE - PERCENT POSITIVE 2 HR (Example 9, 10 mg/ml coating): 100%
- FLUORESCENCE - PERCENT POSITIVE 3 HR (Example 9, 10 mg/ml coating): 100%
- FLUORESCENCE - PERCENT POSITIVE 4 HR (Example 9, 10 mg/ml coating): 100%
- FLUORESCENCE - PERCENT POSITIVE 5 HR (Example 9, 10 mg/ml coating): 100%
- FLUORESCENCE - PERCENT POSITIVE 1 HR (Example 9, 50 mg/ml coating): 85.0%
- FLUORESCENCE - PERCENT POSITIVE 2 HR (Example 9, 50 mg/ml coating): 90.2%
- FLUORESCENCE - PERCENT POSITIVE 3 HR (Example 9, 50 mg/ml coating): 100%
- FLUORESCENCE - PERCENT POSITIVE 4 HR (Example 9, 50 mg/ml coating): 100%
- FLUORESCENCE - PERCENT POSITIVE 5 HR (Example 9, 50 mg/ml coating): 100%
- FLUORESCENCE - PERCENT POSITIVE 1 HR (Example 9, 100 mg/ml coating): 73.3%
- FLUORESCENCE - PERCENT POSITIVE 2 HR (Example 9, 100 mg/ml coating): 86.7%
- FLUORESCENCE - PERCENT POSITIVE 3 HR (Example 9, 100 mg/ml coating): 100%
- FLUORESCENCE - PERCENT POSITIVE 4 HR (Example 9, 100 mg/ml coating): 100%
- FLUORESCENCE - PERCENT POSITIVE 5 HR (Example 9, 100 mg/ml coating): 100%
